Source: patent US8623859B2, “Bradykinin B1 antagonists” (Evotec AG, priority 2008, dated 2014)

target: T1, human B1 (Homo sapiens, UniProt P46663); assay: Calcium flux assay for Bradykinin B1 antagonist, CHO-K1 cell line expressing human B1; type: cell-based; details: CHO-K1 cells expressing human B1, agonist Lys-(Des-Arg)-Bradykinin, read-out: Potency (IC50 value against human B1)
T1 construct: host or cells: CHO-K1
T1 sequence (P46663 1-353): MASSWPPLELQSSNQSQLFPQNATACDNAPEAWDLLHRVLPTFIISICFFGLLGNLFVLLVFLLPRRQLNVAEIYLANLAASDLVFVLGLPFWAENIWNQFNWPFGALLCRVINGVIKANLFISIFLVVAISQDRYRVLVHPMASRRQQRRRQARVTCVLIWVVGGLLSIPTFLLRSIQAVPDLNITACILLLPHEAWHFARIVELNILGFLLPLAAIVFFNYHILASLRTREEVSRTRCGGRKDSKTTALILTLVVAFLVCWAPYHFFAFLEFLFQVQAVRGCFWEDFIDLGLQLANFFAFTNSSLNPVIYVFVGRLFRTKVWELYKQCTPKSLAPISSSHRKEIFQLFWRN
Summary of the method: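 CHO-K1 cells expressing human B1, loaded with 5 μM Fluo-4AM (2 h, 37° C) in HEPES buffer pH 7.4 with probenecid and 0.1% BSA, were preincubated 30 min at 25° C with compound (8 concentrations, triplicate, 1% DMSO) before B1 agonist addition. Ca2+ fluorescence monitored at 538 nm; background-normalized integrated values plotted against log antagonist concentration.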

`COc1cc(C)c(S(=O)(=O)N(Cc2nnc(C(=O)N3CCN(CC4CCN(C)CC4)CC3)s2)C2CC2)c(C)c1` [Ex 335, N-Cyclopropyl-4-methoxy-2,6-dimethyl-N-{[5-({4-[(1-methylpiperidin-4-yl)methyl]piperazin-1-yl}carbonyl)-1,3,4-thiadiazol-2-yl]methyl}benzenesulfonamide] and `COc1cc(C)c(S(=O)(=O)N(Cc2nnc(C(=O)N3CCC(CCN4CCCC4)CC3)s2)C2CC2)c(C)c1` [Ex 337, N-Cyclopropyl-4-methoxy-2,6-dimethyl-N-[(5-{[4-(2-pyrrolidin-1-ylethyl)piperidin-1-yl]carbonyl}-1,3,4-thiadiazol-2-yl)methyl]benzenesulfonamide] cannot be ordered by IC50: < 10 nM for the first, < 10 nM for the second.

First: COc1cc(C)c(S(=O)(=O)N(Cc2nnc(C(=O)N3CCN(CCCN4CCCC4)CC3)s2)C2CC2)c(C)c1 [Ex 336, N-Cyclopropyl-4-methoxy-2,6-dimethyl-N-[(5-{[4-(3-pyrrolidin-1-ylpropyl)piperazin-1-yl]carbonyl}-1,3,4-thiadiazol-2-yl)methyl]benzenesulfonamide]
Second: COc1cc(C)c(S(=O)(=O)N(C)Cc2nnc(C(=O)N3CCN(CC4CCN(C)CC4)CC3)[nH]2)c(C)c1 [Ex 338, 4-Methoxy-N,2,6-trimethyl-N-{[5-({4-[(1-methylpiperidin-4-yl)methyl]piperazin-1-yl}carbonyl)-4H-1,2,4-triazol-3-yl]methyl}benzenesulfonamide]
The IC50 of the first is lower: 10 to 100 nM for the first, 100 to 1000 nM for the second.
